Reference: patent publication US20260206761A1, “HETEROARYL-TRIAZOLE COMPOUNDS AS PESTICIDES” (Bayer Aktiengesellschaft, priority 2019, published 2026)

What was measured:
Format in all cases: in vivo
[1] = test system: adult brown dog ticks (Rhipicephalus sanguineus); assay: Rhipicephalus sanguineus in-vitro contact test, adult brown dog ticks; settings: after 48 hours, read-out: activity (efficacy: ticks dead or moribund); for pest or weed control at 100 g/ha: application rate 1 pg/cm^2 (=100 g/ha); for pest or weed control at 5 µg/cm2, 500 g/ha: application rate 5 μg/cm^2 (=500 g/ha)
Outline: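 Read-out: % efficacy as dead or moribund ticks, judged 48 h after exposure by failure to climb away from a 45-50° C heating plate within 5 min. Tubes were coated with acetone solution (900 ppm = 5 μg/cm^2 surface dose) and held 5-10 adults each at room temperature.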

[2] = test system: larvae of the banded cucumber beetle (Diabrotica balteata); assay: Diabrotica balteata spray test; settings: 168 h, after 7 days, read-out: activity (efficacy: seedlings grown); for pest or weed control at 100 g/ha: application rate 100 g/ha (=32 pg/well); for pest or weed control at 500 g/ha: application rate 500 g/ha (=160 pg/well)
Outline: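 Read-out is % efficacy at day 7, 0% meaning no seedling growth and 100% growth equal to uninfested untreated controls. Test solutions (acetone/DMF concentrate diluted with water carrying 1000 ppm emulsifier) were sprayed onto 1-day-germinated wheat seeds, 5 per well, before infestation with 10-20 larvae.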

[3] = test system: cattle ticks (Rhipicephalus microplus) strain Parkhurst, SP-resistant; assay: Rhipicephalus (Boophilus) microplus dip test; settings: 168 h, application rate 100 ppm, egg deposition after 7 days, read-out: activity (efficacy: infertile eggs)
Method: Rhipicephalus (Boophilus) microplus—Din Test
Test animal: cattle ticks (Rhipicephalus microplus) strain Parkhurst, SP-resistant
Solvent: dimethyl sulfoxide
To produce a suitable preparation of active compound, 10 mg of active compound are dissolved in 0.5 mL solvent, and the concentrate is diluted with water to the desired concentration.
This compound solution is pipetted into tubes. 8-10 engorged, adult, female cattle ticks (Rhipicephalus microplus) are placed in perforated tubes. These tubes are immersed in the aqueous compound solution until the ticks are completely moistened. After the liquid has drained off, the ticks are transferred to a filter paper in a plastic tray and stored in a climate chamber.
After 7 days egg deposition of fertile eggs is monitored. Eggs where fertility is not visible are stored in a climate chamber till hatching after about 42 days. An efficacy of 100% means all eggs are infertile; 0% means all eggs are fertile.

[4] = test system: Musca domestica strain WHO-N; assay: Musca domestica test (MUSCDO surface treatment & contact assay); settings: 24 hours after contact, read-out: efficacy (mortality); for mortality at 4 mg/m2: surface concentration 4 mg/m^2, exposure 30 minutes; for mortality at 20 mg/m2: surface concentration 20 mg/m^2, exposure 30 minutes
Outline: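 Compound dissolved at 2 mg/ml in acetone with 2000 ppm rapeseed oil methyl ester and pipetted onto a glazed tile. After the acetone evaporated, adult WHO-N flies were exposed to the dried surface for 30 min, with % mortality scored 24 h after contact.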

[5] = test system: Culex quinquefasciatus strain P00; assay: Culex quinquefasciatus test (CULXFA surface treatment & contact assay); settings: 24 hours after contact, read-out: efficacy (mortality); for mortality at 20 mg/m2: surface concentration 20 mg/m^2, exposure 30 minutes; for mortality at 4 mg/m2: surface concentration 4 mg/m^2, exposure 30 minutes
Outline: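 Compound in acetone (2 mg/ml) with 2000 ppm rapeseed oil methyl ester, dried onto glazed tile. Adult mosquitoes exposed to the treated surface for 30 min. Percent mortality scored 24 h after contact.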

[6] = test system: green peach aphid (Myzus persicae); assay: Myzus persicae oral test; settings: 120 h, application rate 4 ppm, after 5 days
Outline: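 Five-day oral feeding assay measuring percent mortality of a mixed aphid population that draws compound-containing sugared IPL41 medium through sealing parafilm; the test preparation derives from 1 part compound per 100 parts acetone, diluted with water.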

[7] = test system: Anopheles funestus strain FUMOZ-R; assay: Anopheles funestus test (ANPHFU surface treatment & contact assay); settings: 24 hours after contact, read-out: efficacy (mortality); for mortality at 4 mg/m2: surface concentration 4 mg/m^2, exposure 30 minutes; for mortality at 20 mg/m2: surface concentration 20 mg/m^2, exposure 30 minutes
Outline: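 Compound dissolved in acetone at 2 mg/ml with 2000 ppm RME, pipetted onto glazed tile; acetone evaporated. Adult FUMOZ-R mosquitoes exposed to dried surface for 30 min. Percent mortality scored 24 h after contact.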

Structure (SMILES) | pest or weed control at 100 g/ha [1] | pest or weed control at 5 µg/cm2, 500 g/ha [1] | pest or weed control at 100 g/ha [2] | pest or weed control at 100 ppm [3] | mortality at 4 mg/m2 [4] | mortality at 20 mg/m2 [4] | mortality at 20 mg/m2 [5] | mortality at 4 ppm [6] | mortality at 4 mg/m2 [5] | mortality at 4 mg/m2 [7] | mortality at 20 mg/m2 [7] | pest or weed control at 500 g/ha [2]
Cc1nc([C@H](C)NC(=O)c2cc(OC(F)(F)F)cc(C3CC3)c2)n(-c2ccc(C#N)cn2)n1 [II-39] | 100% | 100% | 100% | 100% | 80 to 100% | 80 to 100% | 80 to 100% | 100% |  |  |  | 
C[C@H](NC(=O)c1cc(Cl)cc(S(C)(=O)=O)c1)c1ncnn1-c1ncc(OC(F)F)cn1 [II-42] | 100% | 100% | 80% | 100% |  |  | 80 to 100% | 100% | 80 to 100% | 80 to 100% | 80 to 100% | 
C[C@H](NC(=O)c1cc(Cl)cc(S(C)(=O)=O)c1)c1nc(C2CC2)nn1-c1ccc(C#N)cn1 [I-4] |  |  | 100% | 100% |  |  |  | 100% |  |  |  | 100%
C[C@H](NC(=O)c1cc(C(F)(F)F)cc(C2(C#N)CC2)c1)c1ncnn1-c1ccc(Cl)cn1 [II-48] | 100% | 100% | 100% | 100% | 80 to 100% | 80 to 100% |  | 100% |  | 80 to 100% | 80 to 100% | 
C[C@H](NC(=O)c1cc(C(F)(F)F)cc(S(C)(=O)=O)c1)c1ncnn1-c1ncccn1 [II-13] |  |  | 100% | 100% | 80 to 100% |  |  | 100% | 80 to 100% | 80 to 100% |  | 100%
Cc1nc([C@H](C)NC(=O)c2cc(C(F)(F)F)cc(C3(C#N)CC3)c2)n(-c2ccc(C#N)cn2)n1 [II-49] | 100% | 100% | 100% | 100% | 80 to 100% | 80 to 100% |  | 100% |  |  | 80 to 100% | 
C[C@H](NC(=O)c1cc(C(F)(F)F)cc(C2(C#N)CC2)c1)c1ncnn1-c1ccc(C#N)cn1 [II-47] | 100% | 100% | 100% | 100% | 80 to 100% | 80 to 100% |  | 100% |  | 80 to 100% | 80 to 100% | 
